Laboratory results published in US12073966B2 (priority 2012, dated 2024).
Entries after “also recorded” stand apart in the source; their conditions may differ.

What was measured:
[1] = target: αHL pores (Staphylococcus aureus, UniProt P09616)
[2] = target: αHL (Staphylococcus aureus, UniProt P09616); type: biochemical
[3] = type: physicochemical
Method: A droplet containing pyranine (10 mM) and DPhPC (1 mg mL^−1) in 1 M KCl, 10 mM Tris·HCl, pH 7.0, was used to form a bilayer with another droplet containing DPhPC (1 mg mL^−1) but no pyranine in the same buffer. The droplets were incubated in a mixture of hexadecane/silicone oil AR20 (1:1 v/v) containing DPhPC (1 mg mL^−1).
An Ag/AgCl electrode, the cis electrode, was inserted into one droplet, and attached to the grounded end of a patch-clamp headstage (Axon Instruments, USA). A second Ag/AgCl electrode (trans) inserted in another droplet was connected to the active end. A positive potential causes the flow of anions from the cis to the trans electrode and of cations from trans to cis. The current was amplified by using a patchclamp amplifier (Axopatch 200B, Axon Instruments, USA), filtered with a low-pass Bessel filter (80 dB/decade) with a corner frequency of 1 kHz, and digitized with a Digidata 1322 A/D converter (Axon Instruments) at a sampling frequency of 20 kHz. Post-acquisition, the data were low-pass filtered at 100 Hz to 400 Hz. The droplet assembly, electrodes, and the headstage were enclosed in a metal box to minimize electrical noise.

Chain of αHL pores (P09616 27-319 limits assumed): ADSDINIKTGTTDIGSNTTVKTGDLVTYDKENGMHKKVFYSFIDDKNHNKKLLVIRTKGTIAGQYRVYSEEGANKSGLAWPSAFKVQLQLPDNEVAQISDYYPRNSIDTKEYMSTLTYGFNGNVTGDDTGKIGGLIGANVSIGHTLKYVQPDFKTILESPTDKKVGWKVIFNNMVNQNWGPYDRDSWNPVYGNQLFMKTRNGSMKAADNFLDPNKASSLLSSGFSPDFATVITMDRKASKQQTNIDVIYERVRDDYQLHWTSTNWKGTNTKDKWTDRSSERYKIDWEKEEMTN
Chain of αHL (P09616 27-319 limits assumed): as above

Compound	dye transfer through bilayers of the droplet network [1]	effect on ionic current / electrical signal through αHL pores [2]	effect on bilayer stability ([3]; current recordings, pyranine 10 mM)	time the bilayer was stable (capacitance monitoring) ([3]; one droplet with pyranine 10 mM, DPhPC 1 mg mL^-1, hexadecane/silicone oil AR20 1:1)	time of influx into droplet 4 (fastest influx) [1] [h]	time until colour change in all droplets of the second layer [1] [days]	time until αHL-containing droplets turned green [1] [h]
xylene cyanol	did not show any transfer; also recorded: No transfer						
γ-cyclodextrin [γCD]		intermittently interrupted; also recorded: interrupted by γCD blockades					
O=S(=O)(O)c1cc(O)c2ccc3c(S(=O)(=O)O)cc(S(=O)(=O)O)c4ccc1c2c34 [pyranine, 8-hydroxypyrene-1,3,6-trisulfonic acid]	only through droplets containing αHL		did not compromise bilayer stability	at least 90 min	≤ 13	4	~70
